Experimental data from patent US7470715B2, “Estrogen modulators” (Pfizer Inc., priority 2005, dated 2008).

Columns and labels:
[1] = biological target: T1, ligand binding domain of the estrogen receptor alpha chain (ERαLBD) (Homo sapiens, UniProt P03372); experiment: ER agonist cell assay (ERα), Huh-7 co-transfection, luciferase; format: cell-based; conditions: for EC50: Huh-7 cells co-transfected with pG5luc and ERαLBD, overnight incubation, luciferase; for ERα % of Max E2 Response: percent of the maximum estradiol fold change, Huh-7, pG5luc and ERαLBD
T1 construct: expressed in transfected cells; host or cells: Huh-7 human hepatoma cells, transient transfection with FuGENE 6
T1 sequence (P03372 311-547 limits assumed): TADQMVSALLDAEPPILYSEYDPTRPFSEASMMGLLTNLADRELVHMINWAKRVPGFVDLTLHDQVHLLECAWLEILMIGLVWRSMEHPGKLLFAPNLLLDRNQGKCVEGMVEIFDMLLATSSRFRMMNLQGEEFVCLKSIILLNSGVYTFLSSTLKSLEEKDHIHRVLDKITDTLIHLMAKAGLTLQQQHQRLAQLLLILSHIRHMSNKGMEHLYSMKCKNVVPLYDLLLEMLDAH
Procedure: (§1) The compounds ability to mimic the effects of estrogen on the estrogen receptor were determined in a whole cell assay as described immediately below.
(§2) Experimental Procedure for ER Agonist Cell Assay
(§3) • Cell line and plasmids: The human hepatoma cell line Huh-7 was used for co-transfections. Cells were maintained in culture medium and split when they reached 80-90% confluency. Three plasmids were routinely used in the assay. pG5luc contained the firefly luciferase gene and was obtained from Promega. […] Cell Culture Media and Reagents:
(§4) Culture medium: DMEM (phenol red free), 10% charcoal treated HyClone serum, 1% L-glutamine, and 1% penicillin/streptomycin
(§5) Transfection medium: DMEM (phenol red free) and 10% charcoal treated HyClone serum
(§6) Luciferase reagents: Dual-Glo Luciferase Kit (Promega cat #E2980) was used for determination of luciferase activity.
(§7) Transient transfections were preformed using the lipophilic reagent FuGENE 6 (Roche). Cells were split and seeded at 7.2×10^6/150 cm^2 flask in 20 mL of transfection medium. 5-6 hrs later cells were co-transfected with either pG5luc and ERαLBD or pG5luc and ERβLBD(pm418). Transfected cells grew overnight and were then used the next day.
(§8) Cells transfected 24 hrs earlier were harvested, counted, and seeded in wells containing compound at a density of 1×10^4 cells/well. […] Cells were incubated overnight at 37° C. and 5% CO2 in the presence of compound. The following day medium was aspirated from the wells and 100 ul of Dual-Glo™ Luciferase Reagent were added to each well. Plates were incubated at room temperature for 20 minutes and firefly luminescence was measured on a luminometer. Next, 50 ul of Dual-Gbo™ Stop & Glo® Reagent were added to each well and after 20 minutes at room temperature the Renilla luminescence was measured on a luminometer. Values from each well were normalized by dividing the firefly luminescence by the Renilla luminescence. Estradiol was used as the standard and run in each assay. The fold induction over background for each compound was compared to the maximum fold induction for estradiol in each assay. […] Those compounds that were not tested, or the data was unavailable are marked as NT.

[2] = biological target: ligand binding domain of the estrogen receptor beta chain (ERβLBD) that contained a point mutation at amino acid residue 418 (pm418) (Homo sapiens, UniProt Q92731); experiment: ER agonist cell assay (ERβ), Huh-7 co-transfection, luciferase; format: cell-based; conditions: for EC50: Huh-7 cells co-transfected with pG5luc and ERβLBD(pm418), overnight incubation, luciferase; for ERβ % of Max E2 Response: percent of the maximum estradiol fold change, Huh-7, pG5luc and ERβLBD(pm418)
Procedure: as §1, §2, §3, §4, §5, §6, §7, §8

## Oc1ccc(-c2noc(C3(C(O)C4CC4)CC3)c2-c2ccccc2)cc1 (racemic) [Example 14, (±)-4-{5-[1-(Cyclopropyl-hydroxy-methyl)-cyclopropyl]-4-phenyl-isoxazol-3-yl}-phenol]
[1]
  EC50: 43 nM
  ERα % of Max E2 Response: 45.4%
[2]
  EC50: 136 nM
  ERβ % of Max E2 Response: 17.7%

## Oc1ccc(-c2noc(C3(C(O)c4ccccc4)CC3)c2-c2ccccc2)cc1 (racemic) [Example 16, (±)-4-{5-[1-(Hydroxy-phenyl-methyl)-cyclopropyl]-4-phenyl-isoxazol-3-yl}-phenol]
[1]
  EC50: 44.3 nM
  ERα % of Max E2 Response: 63.2%
[2]
  ERβ % of Max E2 Response: 2.37%

## CC(C)C(O)C1(c2onc(-c3ccc(O)cc3)c2-c2ccccc2)CC1 (racemic) [Example 17, (±)-4-{5-[1-(1-Hydroxy-2-methyl-propyl)-cyclopropyl]-4-phenyl-isoxazol-3-yl}-phenol]
[1]
  EC50: 34.4 nM
  ERα % of Max E2 Response: 56.8%
[2]
  EC50: 126 nM
  ERβ % of Max E2 Response: 3.82%

## CC(C)C(C)NCC1(c2onc(-c3ccc(O)cc3)c2-c2ccccc2)CC1 (racemic) [Example 24, (±)-4-(5-{1-[(1,2-Dimethyl-propylamino)-methyl]-cyclopropyl}-4-phenyl-isoxazol-3-yl)-phenol]
[1]
  EC50: 12.6 nM
  ERα % of Max E2 Response: 30.9%
[2]
  EC50: > 10000 nM
  ERβ % of Max E2 Response: >0.860%

## CC(C)OCC1(c2onc(-c3ccc(O)cc3)c2-c2ccccc2)CC1 [Example 3, 4-[5-(1-Isopropoxymethyl-cyclopropyl)-4-phenyl-isoxazol-3-yl]-phenol]
[1]
  EC50: 97.1 nM
  ERα % of Max E2 Response: 32.2%
[2]
  EC50: 568 nM
  ERβ % of Max E2 Response: 1.32%

## COc1cccc(F)c1OCC1(c2onc(-c3ccc(O)cc3)c2-c2ccccc2)CC1 [Example 7, 4-{5-[1-(2-Fluoro-6-methoxy-phenoxymethyl)-cyclopropyl]-4-phenyl-isoxazol-3-yl}-phenol]
[1]
  EC50: 208 nM
  ERα % of Max E2 Response: 17.2%
[2]
  EC50: > 10000 nM
  ERβ % of Max E2 Response: >0.485%

## COCC1(c2onc(-c3ccc(O)cc3)c2-c2ccccc2)CC1 [Example 8, 4-[5-(1-Methoxymethyl-cyclopropyl)-4-phenyl-isoxazol-3-yl]-phenol]
[1]
  EC50: 25.8 nM
  ERα % of Max E2 Response: 40.4%
[2]
  EC50: 68.8 nM
  ERβ % of Max E2 Response: 3.65%

## COCOCC1(c2onc(-c3ccc(O)cc3)c2-c2ccccc2)CC1 [Example 10, 4-[5-(1-Methoxymethoxymethyl-cyclopropyl)-4-phenyl-isoxazol-3-yl]-phenol]
[1]
  EC50: 17.7 nM
  ERα % of Max E2 Response: 15.1%
[2]
  EC50: 197 nM
  ERβ % of Max E2 Response: 1.18%

## Oc1ccc(-c2noc(C3(COCC(F)(F)F)CC3)c2-c2ccccc2)cc1 [Example 11, 4-{4-Phenyl-5-[1-(2,2,2-trifluoro-ethoxymethyl)-cyclopropyl]-isoxazol-3-yl}-phenol]
[1]
  EC50: 171 nM
  ERα % of Max E2 Response: 23.4%
[2]
  EC50: 14.7 nM
  ERβ % of Max E2 Response: 1.98%

## Cc1ncccc1OCC1(c2onc(-c3ccc(O)cc3)c2-c2ccccc2)CC1 [Example 12, 4-{5-[1-(2-Methyl-pyridin-3-yloxymethyl)-cyclopropyl]-4-phenyl-isoxazol-3-yl}-phenol]
[1]
  EC50: 354 nM
  ERα % of Max E2 Response: 26.2%
[2]
  ERβ % of Max E2 Response: 0.577%

## COc1ncccc1OCC1(c2onc(-c3ccc(O)cc3)c2-c2ccccc2)CC1 [Example 13, 4-{5-[1-(2-Methoxy-pyridin-3-yloxymethyl)-cyclopropyl]-4-phenyl-isoxazol-3-yl}-phenol]
[1]
  ERα % of Max E2 Response: 19%
[2]
  ERβ % of Max E2 Response: 0.552%

## CC[C@@H](NCC1(c2onc(-c3ccc(O)cc3)c2-c2ccccc2)CC1)c1ccccc1 [Example 26, 4-[4-Phenyl-5-(1-{[(1R)-1-phenyl-propylamino]-methyl}-cyclopropyl)-isoxazol-3-yl]-phenol]
[1]
  EC50: 66 nM
  ERα % of Max E2 Response: 20.9%
[2]
  ERβ % of Max E2 Response: 1.03%

## Oc1ccc(-c2noc(C3(CNc4cccc(C(F)(F)F)c4)CC3)c2-c2ccccc2)cc1 [Example 29, 4-(4-Phenyl-5-{1-[(3-trifluoromethyl-phenylamino)-methyl]-cyclopropyl}-isoxazol-3-yl)-phenol]
[1]
  ERα % of Max E2 Response: 11.4%
[2]
  ERβ % of Max E2 Response: 0.601%

## Oc1ccc(-c2noc(C3(CN4CCOCC4)CC3)c2-c2ccccc2)cc1 [Example 31, 4-[5-(1-Morpholin-4-ylmethyl-cyclopropyl)-4-phenyl-isoxazol-3-yl]-phenol]
[1]
  EC50: 26.9 nM
  ERα % of Max E2 Response: 30%
[2]
  EC50: 151 nM
  ERβ % of Max E2 Response: 1.35%

## CC(=O)SCC1(c2onc(-c3ccc(O)cc3)c2-c2ccccc2)CC1 [Example 37, Thioacetic acid S-{1-[3-(4-hydroxy-phenyl)-4-phenyl-isoxazol-5-yl]-cyclopropylmethyl} ester]
[1]
  EC50: 202 nM
  ERα % of Max E2 Response: 30.7%
[2]
  EC50: 302 nM
  ERβ % of Max E2 Response: 4.3%

## CSCC1(c2onc(-c3ccc(O)cc3)c2-c2ccccc2)CC1 [Example 38, 4-[5-(1-Methylsulfanylmethyl-cyclopropyl)-4-phenyl-isoxazol-3-yl]-phenol]
[1]
  EC50: 1130 nM
  ERα % of Max E2 Response: 11.4%
[2]
  EC50: 749 nM
  ERβ % of Max E2 Response: 6.6%

## Oc1ccc(-c2noc(C3(CSc4ccccc4)CC3)c2-c2ccccc2)cc1 [Example 40, 4-[4-Phenyl-5-(1-phenylsulfanylmethyl-cyclopropyl)-isoxazol-3-yl]-phenol]
[1]
  EC50: 107 nM
  ERα % of Max E2 Response: 39.5%
[2]
  EC50: 139 nM
  ERβ % of Max E2 Response: 1.12%

## N#CCC1(c2onc(-c3ccc(O)cc3)c2-c2ccccc2)CC1 [Example 42, {1-[3-(4-Hydroxy-phenyl)-4-phenyl-isoxazol-5-yl]-cyclopropyl}-acetonitrile]
[1]
  EC50: 37.7 nM
  ERα % of Max E2 Response: 51.7%
[2]
  EC50: 198 nM
  ERβ % of Max E2 Response: 6.17%

## COCC(=O)OCC1(c2onc(-c3ccc(O)cc3)c2-c2ccccc2)CC1 [Example 53]
[1]
  EC50: 45.6 nM
  ERα % of Max E2 Response: 85.4%
[2]
  EC50: 71.1 nM
  ERβ % of Max E2 Response: 79%

## CC(=O)OCC1(c2onc(-c3ccc(O)cc3)c2-c2ccccc2)CC1 [Example 54]
[1]
  EC50: 38.8 nM
  ERα % of Max E2 Response: 60.4%
[2]
  EC50: 108 nM
  ERβ % of Max E2 Response: 65.8%

## CC(C)CC(=O)OCC1(c2onc(-c3ccc(O)cc3)c2-c2ccccc2)CC1 [Example 55]
[1]
  EC50: 5.7 nM
  ERα % of Max E2 Response: 55.8%
[2]
  EC50: 23.6 nM
  ERβ % of Max E2 Response: 32.6%

## Cc1noc(C)c1C(=O)OCC1(c2onc(-c3ccc(O)cc3)c2-c2ccccc2)CC1 [Example 56]
[1]
  EC50: 11.1 nM
  ERα % of Max E2 Response: 42.1%
[2]
  EC50: 30.6 nM
  ERβ % of Max E2 Response: 3%

## CCC(=O)OCC1(c2onc(-c3ccc(O)cc3)c2-c2ccccc2)CC1 [Example 57]
[1]
  EC50: 245 nM
  ERα % of Max E2 Response: 71.9%
[2]
  EC50: 137 nM
  ERβ % of Max E2 Response: 112%

## CCCC(=O)OCC1(c2onc(-c3ccc(O)cc3)c2-c2ccccc2)CC1 [Example 58]
[1]
  EC50: 137 nM
  ERα % of Max E2 Response: 59.9%
[2]
  EC50: 97.9 nM
  ERβ % of Max E2 Response: 92%

## COCCOC(=O)C1(c2onc(-c3ccc(O)cc3)c2-c2ccccc2)CC1 [Example 88, 1-[3-(4-Hydroxy-phenyl)-4-phenyl-isoxazol-5-yl]-cyclopropanecarboxylic acid 2-methoxy-ethyl ester]
[1]
  EC50: 29.4 nM
  ERα % of Max E2 Response: 29.2%
[2]
  EC50: > 10000 nM
  ERβ % of Max E2 Response: >3.41%

## O=C(OC1CCCC1)C1(c2onc(-c3ccc(O)cc3)c2-c2ccccc2)CC1 [Example 89, 1-[3-(4-Hydroxy-phenyl)-4-phenyl-isoxazol-5-yl]-cyclopropanecarboxylic acid cyclopentyl ester]
[1]
  EC50: 30.5 nM
  ERα % of Max E2 Response: 26%
[2]
  EC50: > 10000 nM
  ERβ % of Max E2 Response: >2.93%
